Measured values as given in patent US20190343793A1, “COMPOSITIONS COMPRISING A CANNABINOID RECEPTOR BINDING LIGAND” (NOVALIQ GMBH, priority 2016, published 2019).

Test: Storage stability in a liquid vehicle comprising a semifluorinated alkane

**Q.** Which results are given for `CCCCCc1cc(O)c2c(c1)OC(C)(C)[C@@H]1CCC(C)=C[C@@H]21` [delta-9-Tetrahydrocannabinol (THC), (−)-(6aR,10aR)-6,6,9-Trimethyl-3-pentyl-6a,7,8,10a-tetrahydro-6H-benzo[c]chromen-1-ol]?
**A.** Storage period when dissolved or suspended in liquid vehicle comprising semifluorinated alkane (liquid vehicle comprising at least one semifluorinated alkane): up to 2 years; Stability when air was not excluded (liquid vehicle with high content of, or essentially consisting of, F4H5 or F6H8): stable even when air was not excluded
